Experiment [1] concerns the target T1, thioredoxin 1 (Homo sapiens, UniProt P10599).
T1 construct: endogenous in cells; host or cells: SW480 human colon cancer cells
T1 sequence (P10599 1-105): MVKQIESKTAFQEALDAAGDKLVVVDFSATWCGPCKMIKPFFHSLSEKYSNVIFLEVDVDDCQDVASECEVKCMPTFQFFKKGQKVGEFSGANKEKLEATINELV
The experiment in a line: Thioredoxin 1 redox state, native PAGE immunoblot in SW480 cells. The experiment is classed as cell-based. The note with it: YJB01 20 μM and 100 μM, YJB05 100 μM. How it is done: SW480 human colon cancer cells were grown following the instructions of American Type Culture Collection (ATCC, Monassas, Va.). Cells were treated with either no peptide, with YBJ01 (at 20 μM and 100 μM), or with YBJ05 (at 100 μM). 10^6 cells were lysed in 6 mol/L guanidinium chloride, 50 mmol/L Tris/HCL (pH 8.3), 3 mmol/L EDTA, and 0.5% Triton-X-100 containing 50 mmol/L iodoacetic acid. After 30 min at 37° C., the excess idoacetic acid was removed using Microspin G-25 columns (GE Healthcare Life Sciences). Oxidized and reduced thioredxoin was separated by native PAGE. The gel was electroblotted onto a nitrocellulose membrane and probed with thioredoxin antibodies, followed by HRP-conjugated secondary antibody. Bands corresponding to thioredoxin were visualized by ECL.
SW480 human colon cancer cells were grown following the instructions of American Type Culture Collection (ATCC, Monassas, Va.). Cells were treated with either no peptide, with YBJ01 (at 20 μM and 100 μM), or with YBJ05 (at 100 μM). 10^6 cells from each sample were lysed in 6 mol/L guanidinium chloride, 50 mmol/L Tris/HCL (pH 8.3), 3 mmol/L EDTA, and 0.5% Triton-X-100 containing 50 mmol/L iodoacetic acid. After 30 min at 37° C., the excess idoacetic acid was removed using Microspin G-25 columns (GE Healthcare Life Sciences). Oxidized and reduced thioredxoin was separated by native PAGE. […]
(In general: Immunoblotting shows a protein as a band on a membrane.)

The test system of experiment [2] is MCF-7 human breast cancer cells. The experiment in a line: Flow cytometry forward/side scatter, proportion of dead cells, MCF7. The note with it: 200 μM, 24 hr. The experiment is classed as cell-based. As to the method: (§1) SW480 human colon cancer cells and MCF7 breast cancer cells were grown following the instructions of American Type Culture Collection (ATCC, Monassas, Va.). The cells were treated with the test peptides (YJB01, YJB05, or YJB06) for 24 hrs at concentrations ranging from 0 μM, to 200 μM and subjected to flow cytometric analysis following standard protocols.
(§2) SW480 human colon cancer cells and MCF7 breast cancer cells were grown following the instructions of American Type Culture Collection (ATCC, Monassas, Va.). The cells were treated with the test peptides for 24 hrs at concentrations ranging from 0 μM, to 200 μM and subjected to flow cytometry analysis following standard protocols. […] The circumscribed (gated, outlined) areas in the figure indicate dead cells; dead cells generally have higher density (side scatter) and smaller size (forward scatter) than living cells.
Background: Flow cytometry measures light scatter and fluorescence of single cells or particles in a stream.

Experiment [3] concerns SW480 human colon cancer cells. The experiment in a line: Flow cytometry forward/side scatter, proportion of dead cells, SW480. The experiment is classed as cell-based. The note with it: 200 μM, 24 hr. As to the method: as §1, §2
Experiment [4] has as its system peroxiredoxin 1. Description: Oxidized peroxiredoxin 1 (Prx-O3) immunoblot in SW480 cells. The note with it: 1 h, YJB01 20 μM and 100 μM, YJB05 100 μM. The experiment is classed as cell-based, human. As to the method: The oxidized peroxiredoxin 1 (sulphonic-peroxiredoxin, Prx-O3) was detected by using the specific anti-Prx-O3 antibody. Briefly, after SW480 cells were treated with either no peptide, with YBJ01 (at 20 μM and 100 μM), or with YJB05 (at 100 μM) for 1 h, total cell lysates were collected and separated on the SDS-PAGE gel. The gel was electroblotted onto a nitrocellulose membrane and probed with anti-Prx-O3, followed by HRP-conjugated secondary antibody. Bands corresponding to sulphonic-peroxiredoxin were visualized by ECL
The oxidized peroxiredoxin 1 (sulphonic-peroxiredoxin, Prx-O3) was detected by using the specific anti-Prx-O3 antibody Briefly, after SW480 cells were treated with either no peptide, with YBJ01 (at 20 μM and 100 μM), or with YBJ05 (at 100 μM) for 1 h, total cell lysates were collected and separated on the SDS-PAGE gel. The gel was electroblotted onto a nitrocellulose membrane and probed with anti-Prx-O3, followed by HRP-conjugated secondary antibody. Bands corresponding to sulphonic-peroxiredoxin were visualized by ECL

Experiment [5] has as its system HT29, SW480, BxPC3, MCF7, and MDA-MB-231 cell lines. The format is cell-based, human. The note with it: 24 h. From the text: (FIG. 2A1-8, and FIG. 2B1-6).
The subject of experiment [6] is SW480 human colon cancer cells. The experiment in a line: Annexin V-FITC flow cytometry for apoptotic cells, SW480. To be noted: 24 hrs, 0 μM to 200 μM. The format is cell-based. As to the method: SW480 human colon cancer cells and MCF7 breast cancer cells were grown following the instructions of American Type Culture Collection (ATCC, Monassas, Va.). The cells were treated with the test peptides (YJB01, YJB05, or YJB06) for 24 hrs at concentrations ranging from 0 μM, to 200 μM. After treatment, cells were trypsinized and stained with Annexin V-FITC (100× dilution) for 15 minutes. Annexin V-FITC fluorescence intensities were analyzed by FACSCaliber (BD Bioscience) following standard protocols. Annexin V (+) cells are apoptotic cells.
When cells undergo apoptosis, the inner membrane phospholipid, phosphotidylserine (PS), flips to the outer membrane and can be recognized by the […]. The green FITC fluorescence can be determined by flow cytometry and thus Annexin V (+) cells are apoptotic cells.
In this study, SW480 human cancer cells and MCF7 breast cancer cells were grown following the instructions of American Type Culture Collection (ATCC, Monassas, Va.). The cells were treated with the test peptides (YJB01, YJB05, or YJB06) for 24 hrs at concentrations ranging from 0 μM, to 200 μM. After treatment cells were trypsinized and stained with Annexin V-FITC (100× dilution) for 15 minutes. Annexin V-FITC fluorescence intensities were analyzed by FACSCaliber (BD Bioscience) following standard protocols.

Entries after “also recorded” stand apart in the source; their conditions may differ. No end group written: not given here.

By IC50 is commonly meant the midpoint of a concentration-inhibition curve.

“ATWAGPAKPRQIKIWFQNRRMKWKK [YJB05, reference compound]”: the “induction of the oxidized form of thioredoxin 1” value in experiment [1] is “failed to induce oxidation of thioredoxin 1; also recorded: fails to induce oxidation”. Further, the “dead cells, MCF7” value in experiment [2] is reported as 12.52%. For the same sequence, the “dead cells, SW480” value in experiment [3] is listed as 21.62%. Moreover, the “induction of the oxidized form of peroxiredoxin 1” value in experiment [4] was “fails to induce oxidation”. The same sequence gave a 50% inhibitory concentration (IC50) in experiment [5] above 2000 µM. The “apoptosis, Annexin V (+) cells, SW480” value in experiment [6] is given as “ineffective”.

For the origin of these results see patent US8754047B2, “Peptide compositions and methods of use” (The Research Foundation for the State University of New York, priority 2008, dated 2014).
